Reference: US20230190717A1, “P38 GAMMA INHIBITORS AND METHOD OF USE THEREOF” (City of Hope, priority 2017, published 2023)
“Also recorded” adds a separate entry of the source. Blank lines part the entries; values can stand above or below the compound they belong to.

Key:
p38γ [1] = experiment: Time-resolved fluorescence energy transfer enzyme kinetic analysis; format: biochemical
Hut78 cells [2] = experiment: CellTiterGlo cell viability, Hut78; format: cell-based, human; details: for effect on viability of Hut78 cells: varying concentrations, 72 hr; for IC50: Homo sapiens, HuT78, 72 h
p38 γ = target: T1, p38 γ (Homo sapiens, UniProt P53778); experiment: ADP-Glo in vitro kinase assay, p38γ; format: biochemical; set-up: human recombinant p38 α, β, γ or δ protein (active full-length); purchased SignalChem; host or cells: baculovirus in Sf9 insect cells; details: for inhibitory kinase activity against p38γ: PI3K inhibitors at 1 and 10 μM; for IC50: in vitro inhibition assay
T1 sequence (P53778 1-367): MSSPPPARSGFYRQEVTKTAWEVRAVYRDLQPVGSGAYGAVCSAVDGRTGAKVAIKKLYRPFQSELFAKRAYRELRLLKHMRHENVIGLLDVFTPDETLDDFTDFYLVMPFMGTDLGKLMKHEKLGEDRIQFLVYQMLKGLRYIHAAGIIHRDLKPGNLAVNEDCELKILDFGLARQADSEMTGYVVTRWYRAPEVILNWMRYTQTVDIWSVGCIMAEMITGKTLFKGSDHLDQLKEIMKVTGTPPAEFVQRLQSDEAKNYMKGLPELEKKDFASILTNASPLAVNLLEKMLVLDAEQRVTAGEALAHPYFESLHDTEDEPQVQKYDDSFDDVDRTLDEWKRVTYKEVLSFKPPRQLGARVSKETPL

[3] = system: phosphorylation of Akt at ser473; experiment: Western blot of Akt Ser473 phosphorylation in Hut78; format: cell-based, human; details: Hut78, 4 hr treatment
[4] = system: PBMCs isolated from an SS patient; experiment: Annexin V/PI flow cytometry, SS patient PBMCs; format: cell-based, human; details: SS PBMC, 200 nM, 24 h
From the text: (§1) Data presented are one experiment in triplicate.

p38γ [5] = experiment: p38γ mRNA level and protein expression (Western blot); format: cell-based; details: Western blot, 24 hr, 500 nM
From the text: qRT-PCR (real-time quantitative reverse transcription PCR): Total RNA was generated using TRIZOL reagent (Life Technologies, Carlsbad, Calif.) followed by double DNase treatment and column purification using Qiagen RNeasy Clean-up (Qiagen, Germantown, Md.). The Invitrogen […] III First-Strand Synthesis System was used for cDNA synthesis and TaqMan 5700 Sequence Detection System (Applied Biosystems, Foster City, Calif.) were used for qRT-PCR. All PCR reactions were run in triplicate. The amplified transcripts were quantified using the comparative CT method as described. cDNA and primers for MAPK11, 12, 13, and 14 and GAPDH (Table 9) were added to SYBR GREEN PCR Master Mix (SYBR Green I Dye, […]® DNA polymerase, dNTPs with dUTP and optimal buffer components; Applied Biosystems) and subjected to PCR amplification (1 cycle at 95° C. for 3 min; 35 cycles at 95° C. for 15 s and 55° C. for 30 s; 1 cycle at 50° C. for 2 min).

Hut78 CTCL cell line = experiment: Annexin V/PI flow cytometry, Hut78; format: cell-based, human; details: Hut78, 200 nM, 24 h
From the text: as §1

Hut78 cells [6] = experiment: Hut78 cell proliferation / viability; format: cell-based, human
p38γ [7] = experiment: p38 isoform kinase activity (FIG. 20A); format: biochemical
[8] = system: p38γ substrate DLGH1 at Ser158; experiment: Immunohistochemistry in F7-treated CTCL xenograft mouse tissue; format: in vivo; details: data not shown
Hut78 xenografts = experiment: Hut78 xenograft tumor growth in mice; format: in vivo
[9] = system: p38γ substrate DLGH1 at Ser158; experiment: Western blot of Hut78 cells for phosphorylation of p38γ substrate; format: cell-based, human
HH cells = experiment: CellTiterGlo cell viability, HH; format: cell-based; details: Homo sapiens, 72 h
SS patient cells = experiment: Apoptosis and growth in primary SS patient cells; format: cell-based, human
p38δ = target: T2, p38δ (Homo sapiens, UniProt O15264); experiment: p38 isoform kinase activity (FIG. 20A); format: biochemical; set-up: human recombinant p38 α, β, γ or δ protein (active full-length); purchased SignalChem; host or cells: baculovirus in Sf9 insect cells; details: p38δ (printed "6")
T2 sequence (O15264 1-365): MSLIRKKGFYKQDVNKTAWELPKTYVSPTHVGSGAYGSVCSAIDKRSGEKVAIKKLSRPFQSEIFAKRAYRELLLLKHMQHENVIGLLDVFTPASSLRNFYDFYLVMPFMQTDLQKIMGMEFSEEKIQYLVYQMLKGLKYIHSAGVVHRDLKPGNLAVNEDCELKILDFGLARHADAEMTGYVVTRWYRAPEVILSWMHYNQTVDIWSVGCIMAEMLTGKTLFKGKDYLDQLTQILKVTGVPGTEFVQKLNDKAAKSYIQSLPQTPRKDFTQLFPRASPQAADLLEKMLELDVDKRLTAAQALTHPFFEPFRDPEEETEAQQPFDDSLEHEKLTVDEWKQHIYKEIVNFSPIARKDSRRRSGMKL

PI3Kγ = PI3Kγ (Homo sapiens, UniProt P48736); details: PI3Kγ isoform; cited from earlier work
healthy CD4+ T cells = experiment: Apoptosis and growth in healthy CD4+ T cells; format: cell-based, human; details: FIG. 19E
CTCL cells [10] = experiment: CTCL cell growth / killing; format: cell-based
H9 cells = experiment: CellTiterGlo cell viability, H9; details: Homo sapiens, H9, 72 h
p38γ [11] = experiment: p38γ inhibition at the concentration used in the RNAi library screen; details: 10 uM, data not shown
From the text: Synthetic lethal RNAi screen. We will use a synthetic lethal RNAi screen in the presence of sub-lethal p38γ inhibition to identify critical downstream signaling components in CTCL (FIG. 31). We will transduce control and p38γ inhibitor-treated Hut78 CTCL cells with a pooled retroviral RNAi library that targets genes involved in human cancers. Because loss of p38γ alone causes CTCL cell death, we will titrate the dose and/or length of exposure to the p38γ inhibitor to ensure a sub-lethal effect. The target gene of an shRNA that causes death in cells treated with sub-lethal p38γ inhibitor but not control cells will be identified as synthetic lethal/synergistic. Based on our preliminary data showing synergy between F7 and HDACi, we are expecting to identify HDAC family members in the RNAi screen. We will further narrow down the corresponding HDACi for each HDAC member identified, and study potential synergistic effects to achieve of killing CTCL cells. For example, our preliminary data has shown using an RNAi library plus the p38 inhibitor Ly2228820, we have successfully selected loss of HDAC3 as a synergistically lethal element to p38 pathway inhibition, including α, β, and γ isoforms of p38 by LY2228820 (10 uM) […] We will further test the combination of p38γ inhibition with several HDAC3 inhibitors (e.g., RGFP966) for further mechanistic study in Hut78 cells.

p38γ [12] = target: T3, p38γ (Mus musculus, UniProt O08911); details: requires a high dose; cited from earlier work
T3 construct: host or cells: mice (in vivo)

CTCL cells [13] = experiment: Cell viability, CTCL cells (pirfenidone); format: cell-based; details: Homo sapiens, read-out: IC50 CTCL cell growth / cell killing

PI3Kγ, sequence (P48736 whole entry, canonical isoform): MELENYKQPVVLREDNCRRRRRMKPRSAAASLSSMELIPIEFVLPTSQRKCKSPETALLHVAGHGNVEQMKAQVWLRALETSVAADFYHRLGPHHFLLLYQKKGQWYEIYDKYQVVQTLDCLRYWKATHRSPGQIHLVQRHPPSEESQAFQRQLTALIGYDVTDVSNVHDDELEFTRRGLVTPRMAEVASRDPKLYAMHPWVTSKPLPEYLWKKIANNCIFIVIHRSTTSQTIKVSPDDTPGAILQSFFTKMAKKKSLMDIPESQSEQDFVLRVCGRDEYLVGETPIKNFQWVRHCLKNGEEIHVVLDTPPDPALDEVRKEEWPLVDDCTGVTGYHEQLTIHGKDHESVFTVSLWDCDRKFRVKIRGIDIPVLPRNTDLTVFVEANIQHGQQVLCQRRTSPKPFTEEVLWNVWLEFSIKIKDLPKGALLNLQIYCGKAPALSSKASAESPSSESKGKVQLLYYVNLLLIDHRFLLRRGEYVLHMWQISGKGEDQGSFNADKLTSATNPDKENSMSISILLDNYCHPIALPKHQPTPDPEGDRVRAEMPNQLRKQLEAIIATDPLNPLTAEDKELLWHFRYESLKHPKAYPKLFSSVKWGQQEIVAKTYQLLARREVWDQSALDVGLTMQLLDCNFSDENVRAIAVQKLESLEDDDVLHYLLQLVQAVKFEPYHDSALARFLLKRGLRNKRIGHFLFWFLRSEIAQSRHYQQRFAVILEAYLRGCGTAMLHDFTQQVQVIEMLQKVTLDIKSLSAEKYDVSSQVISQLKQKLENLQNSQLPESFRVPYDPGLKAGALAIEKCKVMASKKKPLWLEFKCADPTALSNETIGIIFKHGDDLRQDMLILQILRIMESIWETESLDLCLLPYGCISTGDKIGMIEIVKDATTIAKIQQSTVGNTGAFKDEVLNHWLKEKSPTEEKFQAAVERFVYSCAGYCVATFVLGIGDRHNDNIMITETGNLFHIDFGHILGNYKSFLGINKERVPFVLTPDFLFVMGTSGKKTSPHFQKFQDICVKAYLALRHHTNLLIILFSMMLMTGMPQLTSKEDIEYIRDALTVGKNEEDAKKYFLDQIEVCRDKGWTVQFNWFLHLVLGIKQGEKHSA
T3 sequence (O08911 whole entry): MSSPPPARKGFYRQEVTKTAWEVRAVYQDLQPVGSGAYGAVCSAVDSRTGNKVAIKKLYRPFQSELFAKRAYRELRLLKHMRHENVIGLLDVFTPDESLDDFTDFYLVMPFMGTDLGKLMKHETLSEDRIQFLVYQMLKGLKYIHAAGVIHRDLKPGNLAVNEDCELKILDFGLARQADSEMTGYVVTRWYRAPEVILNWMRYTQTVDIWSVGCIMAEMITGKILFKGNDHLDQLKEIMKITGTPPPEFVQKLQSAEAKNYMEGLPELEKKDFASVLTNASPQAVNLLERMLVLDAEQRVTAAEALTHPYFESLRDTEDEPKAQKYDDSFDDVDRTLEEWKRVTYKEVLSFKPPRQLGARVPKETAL

Structure (SMILES): Nc1ncnc2c1ncn2[C@@H]1O[C@H](COP(=O)(O)OP(=O)(O)OP(=O)(O)O)[C@@H](O)[C@H]1O [ATP]
Km (p38γ [1]; p38γ, read-out: ATP Km): 3.2 ± 0.4 µM

Structure (SMILES): Cc1nc(NC(=O)N2CCC[C@H]2C(N)=O)sc1-c1csc(C(C)(C)C)n1 [Compound A66]
phosphorylation of Akt at ser473 [3]: dose-dependent inhibition
effect on viability of Hut78 cells (Hut78 cells [2]): no influence
inhibitory kinase activity against p38γ (p38 γ): no inhibitory kinase activities; also recorded: doesn't inhibit

Structure (SMILES): Cc1ccc([N+](=O)[O-])cc1S(=O)(=O)N(C)/N=C/c1cnc2ccc(Br)cn12 [Compound F7]
AnnexV_PI [4]: 17.8 Percentage
Live cells [4]: 42.797 Percentage
PI Stained [4]: 35.2 Percentage
protein expression of p38 gamma (p38γ [5]): reduces and eliminates the protein expression
AnnexV_PI (Hut78 CTCL cell line): 25.5 Percentage
Live cells (Hut78 CTCL cell line): 44.48 Percentage
PI Stained (Hut78 CTCL cell line): 29.53 Percentage
cell viability in Hut78 cells (Hut78 cells [6]; FIG. 19B / FIG. 29A): reduced cell viability
inhibition of growth (Hut78 cells [6]; Hut78 CTCL cells, FIG. 19E): inhibition of growth
induction of apoptosis (Hut78 cells [6]; Hut78 CTCL cells, data not shown): selective induction of apoptosis
proliferation of Hut78 cells (Hut78 cells [6]; compared with Pirfenidone, FIG. 7): reduced proliferation of Hut78 cells more effectively than Pirfenidone
inhibition of kinase activity (p38γ [7]): selective, dose-dependent inhibition
phosphorylation of p38γ substrate DLGH1 at Ser158 [8]: reduced phosphorylation
inhibition of tumor growth (Hut78 xenografts; 2 mg/kg, p=0.015, versus vehicle control): statistically significant dose-dependent inhibition of tumor growth
inhibition of tumor growth (Hut78 xenografts; 10 mg/kg, p=0.025, versus vehicle control): statistically significant dose-dependent inhibition of tumor growth
IC50 (Hut78 cells [2]): 0.042 µM
phosphorylation of p38γ substrate DLGH1 at Ser158 [9]: reduced phosphorylation
IC50 (HH cells): 0.034 µM
inhibition of growth (SS patient cells; FIG. 19E): inhibition of growth
induction of apoptosis (SS patient cells; data not shown): selective induction of apoptosis
inhibition of kinase activity (p38δ): selective, dose-dependent inhibition
IC50 (PI3Kγ): 0.076 µM
inhibition of growth (healthy CD4+ T cells): but not healthy CD4+ T cells
mechanism of inhibition (p38γ [1]; versus ATP): competitive mechanism
killing of CTCL cells (CTCL cells [10]): selectively kills CTCL cells at nanomolar concentrations
effectiveness against CTCL cells (CTCL cells [10]; compared with PI3K-specific inhibitor A66, FIG. 28): more effective against CTCL cells than a PI3K-specific inhibitor
inhibition of CTCL cell growth (CTCL cells [10]; compared with Vorinostat (SAHA)): more potent inhibitor of CTCL cell growth than the FDA-approved HDACi Vorinostat
IC50 (H9 cells): 0.046 µM

Structure (SMILES): CC(C)(C)Cn1c(N)nc2ccc(-c3[nH]c(C(C)(C)C)nc3-c3ccc(F)cc3)nc21 [LY2228820]
p38γ inhibition (p38γ [11]): caused p38γ inhibition

Further lines, with some results ahead:

inhibitory kinase activity against p38γ (p38 γ): no inhibitory kinase activities
Structure (SMILES): Cn1c(=O)n(-c2ccc(C(C)(C)C#N)cc2)c2c3cc(-c4cnc5ccccc5c4)ccc3ncc21 [BEZ235, Dactolisib]
effect on viability of Hut78 cells (Hut78 cells [2]): only modest reduction of cell viability

IC50 (p38 γ): ~3.4 µM
Structure (SMILES): Cc1ccc([N+](=O)[O-])cc1S(=O)(=O)N(C)/N=C/c1cnc2ccc(-c3ccc(F)nc3)cn12 [Compound F7D10]
IC50 (Hut78 cells [2]): ~2.5 µM

inhibitory kinase activity against p38γ (p38 γ): no inhibitory kinase activities
Structure (SMILES): CS(=O)(=O)N1CCN(Cc2cc3nc(-c4cccc5[nH]ncc45)nc(N4CCOCC4)c3s2)CC1 [GDC-0941, Pictilisib]
effect on viability of Hut78 cells (Hut78 cells [2]): only modest reduction of cell viability

IC50 (p38 γ): > 125 µM
Structure (SMILES): Cc1ccc(=O)n(-c2ccccc2)c1 [Pirfenidone]
p38γ inhibition in mice (p38γ [12]): inhibits p38γ in mice
IC50 (Hut78 cells [2]): > 125 µM
IC50 (HH cells): > 125 µM
IC50 (CTCL cells [13]): > 125 µM
IC50 (H9 cells): > 125 µM
